Source: patent US10898473B2, “Combinations to treat cancer” (EVOL SCIENCE LLC, priority 2016, dated 2021)

Legend:
[1] = test system: BxPC3M1 cells; assay: Colony formation assay; type: cell-based
Protocol: (§1) For colony formation assays, 400 cells per well were seeded into 24-well plates on day 0. Cells were treated with DMSO or gemcitabine at various doses on day 1 for 24 hours. Gemcitabine was washed out on day 2, vemurafenib, dabrafenib, and methotrexate was added. On day 4, drugs added on day 2 was washed out. Cells were allowed to grow for a subsequent 7 days before being fixed (10% methanol+10% acetic acid) and stained with crystal violet (0.4% in 20% ethanol) for quantitation as previously described (Bhattacharjee et al., 2014).

[2] = test system: NCI-H2122 cells; assay: Colony formation assay; type: cell-based
Protocol: as §1

[3] = test system: SK-MEL-28 cells; assay: Colony formation assay; type: cell-based
Protocol: as §1

[4] = test system: SK-MEL-28VR1 cells; assay: Colony formation assay; type: cell-based
Protocol: as §1

[5] = test system: pancreatic cancer patient-derived and ATCC established cell lines; assay: 3D-spheroidal growth assay (CTG3D cell viability); type: cell-based; conditions: gemcitabine day 2, washed out, B-raf inhibitor day 3, viability day 5; FIG. 15
Protocol: FIG. 15 illustrates gemcitabine sensitized pancreatic cancer patient-derived and ATCC established cell lines to vemurafenib or dabrafenib in 3D-spheroidal growth assays: 20,000 cells plated (Corning 4515 spheroid plates) on day 0, Gemcitabine added on day 2 (all spheroids at least 500 μm in diameter), gemcitabine washed out and B-raf inhibit was added on day 3, CTG3D cell viability assays on day 5 (n=2).
ATCC established cell lines to vemurafenib or dabrafenib in 3D-spheroidal growth assays. 20,000 cells were plated to grow in a 3D-spheroidal growth assays. (Corning 4515 spheroid plates). Two days later when all spheroids were at least 500 μm in diameter, gemcitabine was added 2 days after plating. Gemcitabine was washed out the following day and the B-raf inhibitor was added on day 3 (3 days post-plating). CTG3D cell viability assays were performed 5-days post plating (i.e, on day 5, n=2). […] This was a surprising and unexpected effect that these cells could be killed with this combination.

[6] = test system: BxPC3M1, BxPC3, Panc1, and MiaPaca2; assay: Cell proliferation assay; type: cell-based; conditions: vemurafenib 10 μM; all 4 cell lines (WT BRAF)
Protocol: FIGS. 9A-9H illustrate vemurafenib induced cell proliferation and serine synthesis in pancreatic cancer cell lines. FIG. 9A: Cell proliferation assay of BxPC3 cells treated with vemurafenib (10 μM). 100000 cells plated on day 0. FIG. 9B: Cell proliferation assay of BxPC3M1 cells treated with vemurafenib (10 μM). 100000 cells plated on day 0. FIG. 9C: Cell proliferation assay of Panc1 cells treated with vemurafenib (10 μM). 100000 cells plated on day 0. FIG. 9D: Cell proliferation assay of MiaPaca2 cells treated with vemurafenib (10 μM). 100000 cells plated on day 0. FIG. 9E: Mass spectrometry: PHGDH protein expression in pancreatic cancer cells treated with DMSO or vemurafenib (10 μM) (n=3). FIG. 9F: Mass spectrometry: PSAT1 protein expression in pancreatic cancer cells treated with DMSO or vemurafenib (10 μM) (n=3). FIG. 9G: Mass spectrometry: PSPH protein expression in pancreatic cancer cells treated with DMSO or vemurafenib (10 μM) (n=3). FIG. 9H: Mass spectrometry: SARS protein expression in pancreatic cancer cells treated with DMSO or vemurafenib (10 μM) (n=3).
Next, we tested the effect of vemurafenib treatment on pancreatic cancer cell proliferation. All 4 of the cell lines (BxPC3M1, BxPC3, Panc1, and MiaPaca2) tested express WT BRAF. […] As expected, PHGDH, PSAT1, PSPH, and SARS protein abundance increased in all 4 cell lines tested (FIGS. 9E, 9F, 9G, and 9H). […]

[7] = test system: BxPC3M1, BxPC3, Panc1, and MiaPaca2; type: cell-based, Homo sapiens; conditions: vemurafenib 10 μM vs DMSO; all 4 cell lines
[8] = test system: PHGDH in SK-MEL-28VR1 cells; assay: Western blot of PHGDH protein expression; type: cell-based; conditions: following vemurafenib treatment; FIG. 5B
Protocol: Cells were harvested, washed in PBS and lysed in NP40 lysis buffer (1% NP40/PBS/10% glycerol) with protease and phosphatase inhibitors. Protein concentrations were determined with Total-Protein-Assay-kit (ITSI Biosciences; K-0014-20) and then SDS sample buffer was added to the lysates. 50 ug of boiled lysates was separated by SDS-PAGE and then transferred onto Immobilon P membranes (Millipore; IPVH00010).

[9] = test system: SK-MEL-28VR1 vs SK-MEL-28 cells; conditions: protein abundance with vemurafenib treatment, SK-MEL-28VR1 compared to parental SK-MEL-28
[10] = test system: SK-MEL-28VR1 cells; assay: Mass spectrometry protein abundance
Protocol: (§2) 5 μL of sample were loaded onto a C18 trap column (PepMap100; 300-μm i.d.×5 mm, 5-μm particle size, 100 Å; Thermo Fisher Scientific) at a flow rate of 10 μL min^−1. […] The runs were analyzed using Progenesis-QI for Proteomics (Nonlinear dynamics). The chromatograms were aligned and the MS/MS data was extracted for peptide identification using Mascot (Matrix Science, London, UK; version 2.5.1). Mascot was set up to search the cRAP database, the custom database including the QMC peptide sequence and SwissProt database (selected for Homo sapiens) assuming the digestion enzyme trypsin. Mascot was searched with a fragment ion mass tolerance of 0.06 Da and a parent ion tolerance of 15 PPM. Deamidated of asparagine and glutamine, oxidation of methionine, acetyl of lysine, propionyl of lysine and carbamidomethylation of cysteine were specified in Mascot as variable modifications. The peptides identified using a FDR<1% were extracted and imported back into Progenesis for assignment of the peaks. Only proteins with at least 2 unique peptides and a Mascot score of 20 were used for further analysis. The peptide and protein quantification used a synthetic control peptide for normalization across the samples.
(§3) All proteomic trend plots were constructed using the Evol Science Software suite (ESSv1.0). […]

[11] = test system: SK-MEL-28 cells; assay: Mass spectrometry protein abundance
Protocol: as §2, §3

Compound: CC(C)(C)c1nc(-c2cccc(NS(=O)(=O)c3c(F)cccc3F)c2F)c(-c2ccnc(N)n2)s1 [dabrafenib, Dabrafenib]
- sensitization to gemcitabine ([1]; dabrafenib 1 μM + variable doses of gemcitabine, FIG. 11A): sensitized
- sensitization to gemcitabine ([2]; dabrafenib 1 μM + variable doses of gemcitabine, FIG. 11B): sensitized

Compound: Nc1ccn([C@@H]2O[C@H](CO)[C@@H](O)C2(F)F)c(=O)n1 [gemcitabine]
- sensitization over single vemurafenib treatments ([3]; gemcitabine 50 nM + variable doses of vemurafenib, FIG. 7A): did not sensitize
- sensitization to vemurafenib ([4]; gemcitabine 50 nM + variable doses of vemurafenib, FIG. 7B): significantly sensitized
- sensitization to dabrafenib ([4]; gemcitabine 50 nm + variable doses of dabrafenib, FIG. 11C): sensitized
- effect of gemcitabine pre-treatment followed by B-raf inhibitors on the cells [5]: leads to cell death
- sensitization to vemurafenib or dabrafenib [5]: sensitized

Compound: CN(Cc1cnc2nc(N)nc(N)c2n1)c1ccc(C(=O)N[C@@H](CCC(=O)O)C(=O)O)cc1 [methotrexate]
- cell death compared to gemcitabine+vemurafenib without methotrexate ([1]; methotrexate (75 nM) + gemcitabine + vemurafenib (1 μM), FIG. 10A): increased cell death
- cell death compared to gemcitabine+vemurafenib without methotrexate ([2]; methotrexate (75 nM) + gemcitabine + vemurafenib (1 μM), FIG. 10B): increased cell death
- killing by methotrexate/vemurafenib treatments ([3]; methotrexate 75 nM + differential doses of vemurafenib, FIG. 6C): no significant killing
- killing of cells following vemurafenib treatment ([4]; methotrexate 75 nM + differential doses of vemurafenib, FIG. 6D): significantly enhanced
- cell death alongside the gemcitabine/vemurafenib combination ([4]; methotrexate (75 nM) + gemcitabine (50 nM) + vemurafenib, FIG. 7F): significantly enhanced

Compound: CCCS(=O)(=O)Nc1ccc(F)c(C(=O)c2c[nH]c3ncc(-c4ccc(Cl)cc4)cc23)c1F [vemurafenib, Vemurafenib]
- sensitization to gemcitabine ([1]; variable gemcitabine doses + vemurafenib 1 μM, FIG. 8A): significantly sensitized
- cell death ([1]; vemurafenib 5 μM, serine depleted media (not with complete media), FIG. 10C): > 50%
- sensitization to gemcitabine ([2]; vemurafenib 1 μM, FIG. 8C): sensitized
- cell death ([4]; vemurafenib 2.5 μM and 5 μM, serine depletion (not with complete media), FIG. 6E): > 50%
- cell proliferation [6]: increased proliferation
- PHGDH, PSAT1, PSPH, and SARS protein abundance [7]: increased
- PHGDH levels [8]: increased
- Fold differential, ASNS [9]: 8 fold
- Fold differential, CYP51A1 [9]: 8 fold
- Fold differential, DUS2 [9]: 7 fold
- Fold differential, FAM129B [9]: 9 fold
- Fold differential, KRT19 [9]: 5 fold
- Fold differential, LARS2 [9]: 6 fold
- Fold differential, MPHOSPH6 [9]: 9 fold
- Fold differential, MRPL13 [9]: 2 fold
- Fold differential, PDLIM7 [9]: 9 fold
- Fold differential, PHGDH [9]: 2 fold
- Fold differential, PPP1R7 [9]: 8 fold
- Fold differential, PSAT1 [9]: 8 fold
- Fold differential, PSPH [9]: 5 fold
- Fold differential, RUVBL1 [9]: 3 fold
- Fold differential, S100A11 [9]: 8 fold
- Fold differential, SARS [9]: 6 fold
- Fold differential, SARS2 [9]: 4 fold
- Fold differential, SBDS [9]: 10 fold
- Fold differential, SPATA20 [9]: 12 fold
- Fold differential, TXNDC17 [9]: 2 fold
- PHGDH, PSAT1, PSPH, SARS and SARS2 abundance ([10]; cells exposed to vemurafenib vs vehicle, data not shown): equal or higher abundances
- Cytoplasmic FAM129B abundance increase ([10]; vemurafenib treatment compared to vehicle treatment, FIG. 5A): ~6 fold
- FAM129B abundance ([11]; in response to vemurafenib treatments, parental cells): decreased
- PHGDH, PSAT1, PSPH, SARS and SARS2 abundance ([11]; parental cells exposed to vemurafenib vs vehicle, data not shown): opposite trend
